This note sets out measurements from PMC7966503, “Deciphering the Pharmacological Mechanisms of Guizhi-Fuling Capsule on Primary Dysmenorrhea Through Network Pharmacology” (Frontiers in Pharmacology, 2021).

The structures appear in SMILES notation. “And” between values parts separate entries of the source, which are not always exact repeats. Identical values can stand only once. Like-named read-outs stand apart in the source and are kept apart here.

One assay concerns the target T1, recombinant human COX2 (Homo sapiens, UniProt P35354).
T1 construct: purchased Beyotime #S0168
T1 sequence (P35354 18-604): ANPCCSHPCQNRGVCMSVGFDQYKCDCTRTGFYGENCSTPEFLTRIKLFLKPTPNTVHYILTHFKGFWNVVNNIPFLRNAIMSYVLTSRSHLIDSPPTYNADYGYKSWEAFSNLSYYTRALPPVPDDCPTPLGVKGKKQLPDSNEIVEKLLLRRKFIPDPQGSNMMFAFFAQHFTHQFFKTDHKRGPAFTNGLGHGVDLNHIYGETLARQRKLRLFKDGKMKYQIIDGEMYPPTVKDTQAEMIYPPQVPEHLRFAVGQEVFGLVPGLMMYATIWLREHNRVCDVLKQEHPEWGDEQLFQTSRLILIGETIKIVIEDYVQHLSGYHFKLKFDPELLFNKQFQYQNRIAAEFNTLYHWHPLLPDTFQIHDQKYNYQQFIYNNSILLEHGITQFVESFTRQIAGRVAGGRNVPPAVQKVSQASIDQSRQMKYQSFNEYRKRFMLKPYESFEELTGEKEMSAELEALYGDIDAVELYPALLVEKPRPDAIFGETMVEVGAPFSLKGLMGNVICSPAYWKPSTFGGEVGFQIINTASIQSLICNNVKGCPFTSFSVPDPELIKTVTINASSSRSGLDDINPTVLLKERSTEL
As to the kind of experiment: COX2 activity assay (cyclooxygenase-2 inhibitor screening kit, fluorescence). As to conditions: duplicated samples. Type of assay: biochemical. From the text: And then we selected predicted compounds and a specific target for preliminary analysis of their dosages and ratios as a starting point. In vitro enzyme activity assays were used to analyze the relationship between predicted GZFLC compounds’ different dosages and their intervention intensity on a specific target COX2, and to investigate GZFLC’s intervention intensity on COX2 under the specific ratio of GZFLC compounds which is relatively fixed in GZFLC. The content in the GZFLC (Jiangsu Kanion Pharmaceutical Co., Ltd. Jiangsu, China, No. 170601) was weighed and extracted with dimethyl sulfoxide (DMSO, 32.308:1, W/V, mg/ml) at 37°C for 30 min. The liquid was collected by centrifugation, and the supernatant was filtered through a 0.22 μ filter. The effect of GZFLC or pure chemicals including 1,2,3,4,6-penta-O-galloyl-beta-D-glucopyranose (purity (%) ≥98%, CAS: 14,937–32–7, Pubchem CID: 65238, Nanjing SenBeiJia Biological Technology Co., Ltd.), galloylpaeoniflorin (purity (%) ≥98%, CAS: 122,965–41–7, Pubchem CID: 46882879, Nanjing SenBeiJia Biological Technology Co., Ltd.), ethyl gallate (purity (%)≥98%, CAS: 831–61–8, Pubchem CID: 13250, Nanjing SenBeiJia Biological Technology Co., Ltd.) and gallic acid (purity (%)≥98%, CAS: 149–91–7, Pubchem CID: 370, Nanjing SenBeiJia Biological Technology Co., Ltd.) on COX2 activity was measured using cyclooxygenase-2 inhibitor screening kit (Beyotime, Cat. No. #S0168). Briefly, the recombinant human COX2 assay mixture (total volume = 90μL/well) consisting of assay buffer, cofactor, COX2 enzyme, and test compound (diluted in DMSO, 5.56% DMSO finally in assay) was incubated at 25°C for 5 min. Detection of the product was performed by adding probe (5μL/well). Arachidonic acid was added and the reaction was allowed to proceed for 15 min at 37°C. The fluorescence of the resulting solution was measured using SpectraMax M2e multilabel plate reader (Molecular Devices, United Kingdom). […] Data was represented as X¯±SD of duplicated samples. The effect of the samples on COX2 was calculated using the following equation: Relative activity of COX2(%)=(RFUsample−RFUBW/RFUA−RFUBW)×100%.

Assay [1] has as its system oxytocin-induced dysmenorrhea murine model. As to the kind of experiment: Uterine histopathology (H&E) in oxytocin-induced dysmenorrhea murine model. Format: in vivo, ICR mice. The following applies: ibuprofen 0.1 g/kg; GZFLC 0.54 and 1.08 g/kg oral, seven days. The procedure: Oxytocin-induced dysmenorrhea in mice was performed according to the method previously reported ([Sun et al., 2002]). […] Except for the normal group (subcutaneous injection of saline), the other groups were administrated by subcutaneous estradiol benzoate injection (0.05 ml/mouse on the first and 10th day, and 0.025 ml/mouse on the remaining days) for ten consecutive days. […] On the 10th day, oxytocin (0.2 ml/2 IU/mouse) was administered by peritoneal injection 1 h after the last administration. The number of animal writhing times was observed and recorded within 30 min after injection of oxytocin. […] The mice were sacrificed immediately. The uterus tissues were fixed with 10% formalin for further study. The uterus tissues were fixed in 10% formalin and stained with hematoxylin and eosin (H&E). […] According to the severity of the lesion, it was recorded as one point (mild), two points (moderate), three points (severe), four points (extremely severe), no lesion was recorded as 0 point. All scores were accumulated and the average score ( X¯±SD ) of each animal in each group was calculated.

The test system is the same in assay [2]. As to the kind of experiment: Writhing response in oxytocin-induced dysmenorrhea murine model. The following applies: 0.1 g/kg oral; within 30 min after oxytocin; mean±SEM, n = 10; model group 32.6 ± 8.5. Format: in vivo, ICR mice. The procedure: Oxytocin-induced dysmenorrhea in mice was performed according to the method previously reported ([Sun et al., 2002]). […] Except for the normal group (subcutaneous injection of saline), the other groups were administrated by subcutaneous estradiol benzoate injection (0.05 ml/mouse on the first and 10th day, and 0.025 ml/mouse on the remaining days) for ten consecutive days. […] On the 10th day, oxytocin (0.2 ml/2 IU/mouse) was administered by peritoneal injection 1 h after the last administration. The number of animal writhing times was observed and recorded within 30 min after injection of oxytocin. […] The mice were sacrificed immediately. The uterus tissues were fixed with 10% formalin for further study.
In general terms: An intraperitoneal irritant provokes the stretching counted in writhing tests.

[3] abbreviates: read-out: IC50, inhibition of the activity of COX2 in vitro (converted).

With `O=C(OC[C@H]1O[C@@H](OC(=O)c2cc(O)c(O)c(O)c2)[C@H](OC(=O)c2cc(O)c(O)c(O)c2)[C@@H](OC(=O)c2cc(O)c(O)c(O)c2)[C@@H]1OC(=O)c1cc(O)c(O)c(O)c1)c1cc(O)c(O)c(O)c1` [1,2,3,4,6-penta-O-galloyl-beta-D-glucopyranose], on recombinant human COX2 (setting [3]), the IC50 (usually the concentration at which inhibition is half-maximal) was 380 nM and 383 nM.

Consider `CCOC(=O)c1cc(O)c(O)c(O)c1` [ethyl gallate], for which the IC50 on recombinant human COX2 (setting [3]) was 1110 nM.

On to `O=C(O)c1cc(O)c(O)c(O)c1` [gallic acid], for which the IC50 on recombinant human COX2 (IC50, inhibition of the activity of COX2 in vitro) was 1950 nM and 1940 nM.

For `C[C@@]12C[C@@]3(O)O[C@@H](O1)[C@]1(COC(=O)c4ccccc4)[C@H]3C[C@@]12O[C@@H]1O[C@H](COC(=O)c2cc(O)c(O)c(O)c2)[C@@H](O)[C@H](O)[C@H]1O` [galloylpaeoniflorin], on recombinant human COX2 (setting [3]), the IC50 was 740 nM and 743 nM.

Turning to `CC(C)Cc1ccc(C(C)C(=O)O)cc1` (stereo not drawn) [ibuprofen], in assay [1], the “degree of uterine lesions (histopathology, H&E)” value is “reducing the degree of uterine lesions”. Besides, in assay [2], the “number of writhing times” value was 5.9 ± 2.1.
